Data from patent publication US20260297060A1, “COMPOUNDS FOR THE DEGRADATION OF MUTANT BRAF” (C4 THERAPEUTICS, INC., priority 2023, published 2026).
Like-named read-outs stand apart in the source and are kept apart here.

Experiment: Pharmacokinetics in female BALB/c nude mice bearing A375 xenografts, 1 day dosing (PK and PD study): plasma, tumor and brain concentrations, AUC
Assay type: in vivo
Details: mouse, po
Excerpt: The concentrations of Dabrafenib, Compound 26 and Compound 141 in the treatment of female BALB/c nude mice bearing A375 xenografts are shown in Table 62-Table 72 and FIG. 52-FIG. 73.

[1] = plasma, 3 mg/kg, 3 mg/kg p.o. BID × 1 day, post 1st dose, read-out: Mean Concentration in Plasma ± SEM
[2] = plasma, 3 mg/kg, 3 mg/kg p.o. BID × 1 day, post 2nd dose, read-out: Mean Concentration in Plasma ± SEM
[3] = plasma, 6 mg/kg, 6 mg/kg p.o. QD × 1 day, read-out: Mean Concentration in Plasma ± SEM
[4] = plasma, 10 mg/kg, 10 mg/kg p.o. BID × 1 day, post 1st dose, read-out: Mean Concentration in Plasma ± SEM
[5] = plasma, 10 mg/kg, 10 mg/kg p.o. BID × 1 day, post 2nd dose, read-out: Mean Concentration in Plasma ± SEM
[6] = tumor, 1.5 mg/kg, 1.5 mg/kg p.o. BID × 1 day, post 2nd dose, read-out: Mean Concentration in Tumor ± SEM
[7] = tumor, 2 mg/kg, 2 mg/kg p.o. TID × 1 day, post 3rd dose, read-out: Mean Concentration in Tumor ± SEM
[8] = tumor, 3 mg/kg, 3 mg/kg p.o. BID × 1 day, post 2nd dose, read-out: Mean Concentration in Tumor ± SEM
[9] = tumor, 6 mg/kg, 6 mg/kg p.o. QD × 1 day, read-out: Mean Concentration in Tumor ± SEM
[10] = tumor, 10 mg/kg, 10 mg/kg p.o. BID × 1 day, post 2nd dose, read-out: Mean Concentration in Tumor ± SEM

CCN(C)S(=O)(=O)Nc1ccc(F)c(Oc2ccc3ncn([C@H]4COC5(CCN(C6CC7(C6)CN(c6cc8c(cc6F)c(N6CCC(=O)NC6=O)nn8C)C7)CC5)C4)c(=O)c3c2)c1C#N [Compound 26, (3R)-3-[6-[2-cyano-3-[[ethyl(methyl)sulfamoyl]amino]-6-fluoro-phenoxy]-4-oxo-quinazolin-3-yl]-8-[2-[3-(2,4-dioxohexahydropyrimidin-1-yl)-5-fluoro-1-methyl-indazol-6-yl]-2-azaspiro[3.3]heptan-6-yl]-1-oxa-8-azaspiro[4.5]decane]
concentration at 4 h [1]: 3060 ± 172 ng/mL | concentration at 8 h [1]: 645 ± 24.7 ng/mL | concentration at 12 h [1]: 527 ± 130 ng/mL | concentration at 0.25 h [2]: 1380 ± 113 ng/mL | concentration at 0.5 h [2]: 2880 ± 325 ng/mL | concentration at 1 h [2]: 4920 ± 1060 ng/mL | concentration at 2 h [2]: 5290 ± 1110 ng/mL | concentration at 4 h [2]: 2590 ± 422 ng/mL | concentration at 10 h [2]: 1500 ± 194 ng/mL | concentration at 24 h [2]: 20.5 ± 4.61 ng/mL | concentration at 36 h [2]: 1.58 ng/mL | concentration at 48 h [2]: 0.968 ± 0.0751 ng/mL | concentration at 0.25 h [3]: 3250 ± 159 ng/mL | concentration at 0.5 h [3]: 7680 ± 353 ng/mL | concentration at 1 h [3]: 15200 ± 186 ng/mL | concentration at 2 h [3]: 11600 ± 1450 ng/mL | concentration at 4 h [3]: 6670 ± 1110 ng/mL | concentration at 8 h [3]: 5720 ± 1940 ng/mL | concentration at 10 h [3]: 3110 ± 682 ng/mL | concentration at 24 h [3]: 185 ± 109 ng/mL | concentration at 36 h [3]: 3.87 ± 0.735 ng/mL | concentration at 48 h [3]: 1.07 ng/mL | concentration at 0.25 h [4]: 7140 ± 1960 ng/mL | concentration at 0.5 h [4]: 17400 ± 1470 ng/mL | concentration at 1 h [4]: 25400 ± 10500 ng/mL | concentration at 2 h [4]: 18800 ± 3020 ng/mL | concentration at 4 h [4]: 7890 ± 2010 ng/mL | concentration at 8 h [4]: 2920 ± 468 ng/mL | concentration at 12 h [4]: 964 ± 248 ng/mL | concentration at 0.25 h [5]: 6220 ± 623 ng/mL | concentration at 0.5 h [5]: 12800 ± 1590 ng/mL | concentration at 1 h [5]: 27000 ± 3530 ng/mL | concentration at 2 h [5]: 20200 ± 1540 ng/mL | concentration at 4 h [5]: 17100 ± 3470 ng/mL | concentration at 10 h [5]: 4640 ± 318 ng/mL | concentration at 24 h [5]: 143 ± 29.1 ng/mL | concentration at 36 h [5]: 10.7 ± 2.46 ng/mL | concentration at 48 h [5]: 10.6 ± 9.23 ng/mL | AUC at 24 h (plasma, 1.5 mg/kg p.o. BID × 1 day, read-out: Plasma AUC at 24 hours, Average): 27600 ng·h/mL | AUC at 24 h (plasma, 2 mg/kg p.o. TID × 1 day, read-out: Plasma AUC at 24 hours, Average): 41800 ng·h/mL | AUC at 24 h (plasma, 3 mg/kg p.o. BID × 1 day, read-out: Plasma AUC at 24 hours, Average): 60200 ng·h/mL | AUC at 24 h (plasma, 6 mg/kg p.o. QD × 1 day, read-out: Plasma AUC at 24 hours, Average): 85100 ng·h/mL | AUC at 24 h (plasma, 10 mg/kg p.o. BID × 1 day, read-out: Plasma AUC at 24 hours, Average): 224000 ng·h/mL | concentration at 1 h [6]: 164 ± 31.1 ng/g | concentration at 4 h [6]: 552 ± 24.7 ng/g | concentration at 10 h [6]: 246 ± 46.4 ng/g | concentration at 24 h [6]: 28.3 ± 21.8 ng/g | concentration at 48 h [6]: 5.63 ng/g | concentration at 1 h [7]: 617 ± 49.7 ng/g | concentration at 4 h [7]: 905 ± 48.2 ng/g | concentration at 10 h [7]: 667 ± 154 ng/g | concentration at 24 h [7]: 12 ± 2.59 ng/g | concentration at 0.25 h [8]: 197 ± 15.3 ng/g | concentration at 0.5 h [8]: 289 ± 31.1 ng/g | concentration at 1 h [8]: 581 ± 107 ng/g | concentration at 2 h [8]: 1230 ± 452 ng/g | concentration at 4 h [8]: 1060 ± 233 ng/g | concentration at 10 h [8]: 630 ± 39.9 ng/g | concentration at 24 h [8]: 24.7 ± 7.5 ng/g | concentration at 48 h [8]: 7.94 ng/g | concentration at 1 h [9]: 882 ± 157 ng/g | concentration at 4 h [9]: 2070 ± 259 ng/g | concentration at 10 h [9]: 1320 ± 333 ng/g | concentration at 24 h [9]: 89.1 ± 25.7 ng/g | concentration at 48 h [9]: 24.2 ng/g | concentration at 1 h [10]: 3500 ± 219 ng/g | concentration at 4 h [10]: 4160 ± 413 ng/g | concentration at 10 h [10]: 2060 ± 207 ng/g | concentration at 24 h [10]: 624 ± 438 ng/g | concentration at 48 h [10]: 81.6 ng/g | AUC at 24 h (tumor, 1.5 mg/kg p.o. BID × 1 day, read-out: Tumor AUC at 24 hours, Average): 5750 ng·h/mL | AUC at 24 h (tumor, 2 mg/kg p.o. TID × 1 day, read-out: Tumor AUC at 24 hours, Average): 11900 ng·h/mL | AUC at 24 h (tumor, 3 mg/kg p.o. BID × 1 day, read-out: Tumor AUC at 24 hours, Average): 13300 ng·h/mL | AUC at 24 h (tumor, 6 mg/kg p.o. QD × 1 day, read-out: Tumor AUC at 24 hours, Average): 25800 ng·h/mL | AUC at 24 h (tumor, 10 mg/kg p.o. BID × 1 day, read-out: Tumor AUC at 24 hours, Average): 56700 ng·h/mL
